In patent US12152030B2 (NOVOSTAR PHARMACEUTICALS, LTD., priority 2019, dated 2024):
Where a name gives a salt, the structure may show the parent alone.

Experiments:
[1] = Pharmacokinetic study in rats; type: in vivo; conditions: male, SD, plasma, rat
Procedure: In the examples, rat pharmacokinetic tests were performed for compounds 2 and 26 to illustrate their pharmacokinetic properties in rats.
Formulation of Liquors of Compound 2: […]
Experimental Method for Pharmacokinetic Study in Rats
(§1) Six SD rats, male, weighing 180-220 g, fasting for 12 hours, were randomly divided into 2 groups, 3 in each group. The animals in group A were intragastrically administrated with the compound liquor at a dose of 10 mg/kg; the animals in group B were intravenously administrated with the compound liquor via tails at a dose of 3 mg/kg. Blank blood was harvested before administration; about 100 μL of venous blood was harvested at different time points after administration, placed in a test tube added with heparin and centrifuged, and about 50 μL of blood plasma was collected and stored at −20° C. for testing.
Formulation of Liquors of Compound 26: […]
Formulation of solution for intravenous administration: compound 26 was dissolved in a solution of 5% DMSO+10% Solutol HS15+85% (20% HP-(3-CD physiological saline).
Formulation of suspension for intragastric administration: compound 26 was dissolved in a solution of 5% DMSO+10% Solutol HS15+85% (20% HP-(3-CD physiological saline).
Administration dosage of compound 26: 1 mg/kg for intravenous injection, 3 mg/kg for intragastric administration.
as §1, with “of 3” for “of 10”, “of 1” for “of 3”

MNK1 [2] = molecular target: T1, MNK1 (Homo sapiens, UniProt Q9BUB5); assay: KinomeScan, MNK1; type: binding
T1 sequence (Q9BUB5 whole entry): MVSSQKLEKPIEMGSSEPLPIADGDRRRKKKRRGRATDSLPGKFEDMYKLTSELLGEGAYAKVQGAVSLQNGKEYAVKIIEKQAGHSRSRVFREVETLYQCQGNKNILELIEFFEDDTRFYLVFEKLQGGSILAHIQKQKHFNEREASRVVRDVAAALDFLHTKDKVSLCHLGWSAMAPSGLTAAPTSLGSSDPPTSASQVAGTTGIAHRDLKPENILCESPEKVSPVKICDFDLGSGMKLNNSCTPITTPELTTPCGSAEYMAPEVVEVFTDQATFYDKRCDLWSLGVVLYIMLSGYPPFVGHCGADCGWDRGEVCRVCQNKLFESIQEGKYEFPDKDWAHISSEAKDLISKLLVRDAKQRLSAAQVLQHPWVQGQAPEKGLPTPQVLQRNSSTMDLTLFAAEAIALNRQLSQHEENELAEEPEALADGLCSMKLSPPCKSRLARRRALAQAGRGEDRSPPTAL
Description: KinomeScan was used to determine the kinase selectivity of compound 2.

MNK2 = MNK2 (Homo sapiens, UniProt Q9HBH9); assay: MNK biological enzyme assay (HTRF kinase assay), MNK2; type: biochemical; design: purchased ThermoFisher PV5607; conditions: 1 ng/μl MNK2, 1 μM STK1 peptide, 100 μM ATP
Sequence of MNK2 (Q9HBH9 whole entry): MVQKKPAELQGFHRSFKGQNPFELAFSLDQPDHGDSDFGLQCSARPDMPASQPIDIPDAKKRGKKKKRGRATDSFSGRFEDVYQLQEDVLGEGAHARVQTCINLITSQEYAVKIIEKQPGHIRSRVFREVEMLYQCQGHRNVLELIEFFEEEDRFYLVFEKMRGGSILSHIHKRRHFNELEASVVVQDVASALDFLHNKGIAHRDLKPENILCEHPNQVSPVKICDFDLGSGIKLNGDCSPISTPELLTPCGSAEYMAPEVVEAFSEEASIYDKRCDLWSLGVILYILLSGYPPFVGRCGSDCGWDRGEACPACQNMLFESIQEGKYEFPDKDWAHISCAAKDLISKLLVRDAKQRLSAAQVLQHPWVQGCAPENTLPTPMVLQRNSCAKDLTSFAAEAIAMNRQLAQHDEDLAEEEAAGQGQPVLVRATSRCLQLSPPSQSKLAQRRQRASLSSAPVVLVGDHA
Procedure: (§2) A HTRF kinase assay kit (Cisbio, catalog number 62ST1PEB) was used to determine the MNK inhibitory activity of the compounds. All kinase reactions were performed in the reaction buffer (provided in the kit). The final MNK1 reaction involved 3 ng/ul recombinant MNK1 (ThermoFisher, PV6023), 1 μM MNK substrate peptide STK1 (provided in the kit), 100 μM ATP, and different concentrations of the inhibitory compounds of interest. The final MNK2 reaction involved 1 ng/μl recombinant MNK2 (ThermoFisher, PV5607), 1 μM MNK substrate peptide STK1 (provided in the kit), 100 μM ATP, and different concentrations of the inhibitory compounds of interest. The final DMSO concentration in each of the reactions was 1%.
(§3) The kinase reaction was performed in a final volume of 10 μl in a 384-well white flat-bottomed polystyrene plate. The MNK1/2 enzyme was pre-incubated with the compound and substrate peptide for 5 minutes, and then ATP was added thereto. After addition of ATP, the kinase reaction was incubated at 25° C. for 120 minutes or 60 minutes. The reaction was subsequently terminated by adding 5 μl of EU3+ substrate antibody detection reagent and 5 μl of XL665 detection reagent, and incubating for another 60 minutes. The luminescent signal was detected with an EnVision microplate reader counter (Perkin Elmer), and the signal from 10-point dilution series of the compounds was used to calculate the compound concentration (IC50) required to achieve 50% inhibition of enzyme activity.
(§4) In this respect, IC50 values which are less than 0.01 μM were marked as “+++”, which are from 0.01 to 0.1 μM were marked as “++”, and which are greater than 0.1 and up to 10.0 μM were marked as “+”, and NA meant “not detected”.

MNK1 [3] = molecular target: T1, MNK1; assay: MNK biological enzyme assay (HTRF kinase assay), MNK1; type: biochemical; design: purchased ThermoFisher PV6023; conditions: 3 ng/ul MNK1, 1 μM STK1 peptide, 100 μM ATP
Procedure: as §2, §3, §4

AUC(0-inf) ([1]; iv, 3 mg/kg): 471 ng·h/mL
AUC(0-t) ([1]; iv, 3 mg/kg): 456 ng·h/mL
clearance ([1]; iv, 3 mg/kg): 110 mL/min/kg
half-life ([1]; iv, 3 mg/kg): 1.58 h
Vd ([1]; iv, i.v., 3 mg/kg, read-out: Vz): 12.3 L/kg
bioavailability ([1]; oral, p.o. 10 mg/kg vs i.v. 3 mg/kg): 38.8%
AUC(0-inf) ([1]; po, 10 mg/kg): 624 ng·h/mL
AUC(0-t) ([1]; po, 10 mg/kg): 584 ng·h/mL
Cmax ([1]; po, 10 mg/kg): 130 ng/mL
Tmax ([1]; po, 10 mg/kg): 2.17 h
half-life ([1]; po, 10 mg/kg): 5.07 h
inhibition at 1 µM (MNK1 [2]): 97.2%
IC50 (MNK2): < 10 nM
IC50 (MNK1 [3]): 10 to 100 nM
Structure (SMILES): Cc1c2c(c(=O)n3c1C(=O)NC31CCCCC1)Nc1cc(N)ncc1C2 [Compound 2, 8′-amino-12′-methyl-6′,11′-dihydro-2′H-spiro[cyclohexane-1,3′-imidazole[1′,5′:1,6]pyrido[3,4-B][1,6]naphthyridine]-1′,5′-dione hydrochloride]
